The record followed here is the PolyMetriX glass transition set.

For the compound `*/C(=C(/*)c1ccc([Si](C(C)C)(C(C)C)C(C)C)cc1)c1ccccc1` (repeat unit), the glass transition temperature stood at 250.00 °C.
For `*/C=C(\F)C(F)(F)C*` (repeat unit), the glass transition temperature is -35.00 °C.
In the case of `*C(=O)c1ccc2c(c1)C(=O)N(c1ccc(Cc3ccc(C(=O)c4cccc(N5C(=O)c6ccc(*)cc6C5=O)c4)cc3)cc1)C2=O` (repeat unit) it was 290.00 °C; in that of `*CCCCCCCCCCCc1nc2ccc(-c3ccc4nc(*)oc4c3)cc2o1` (repeat unit), 62.00 °C; in that of `*Oc1cccc(C(=O)c2ccc(*)cc2)c1` (repeat unit), 137.00 °C.
Under `*c1ccc(-c2ccc(-c3cc(-c4ccc(Oc5ccc(-c6ccccc6)cc5)cc4)c4cc(-c5ccc6nc(*)cc(-c7ccc(Oc8ccc(-c9ccccc9)cc8)cc7)c6c5)ccc4n3)cc2)cc1` (repeat unit) stands 364.00 °C; under `*c1ccc(-c2ccc(-c3cc(-c4ccc(Oc5ccc(Oc6ccccc6)cc5)cc4)c4cc(-c5ccc6nc(*)cc(-c7ccc(Oc8ccc(Oc9ccccc9)cc8)cc7)c6c5)ccc4n3)cc2)cc1` (repeat unit), 355.00 °C; under `*c1ccc(-c2ccc(-c3cc(-c4ccccc4)c4cc(C5(c6ccc7nc(*)cc(-c8ccccc8)c7c6)c6ccccc6C(=O)c6ccccc65)ccc4n3)cc2)cc1` (repeat unit), 350.00 °C.
Consider `*c1ccc(-c2cnc3cc(S(=O)(=O)c4ccc5nc(*)cnc5c4)ccc3n2)cc1` (repeat unit), for which the glass transition temperature is 342.00 °C.
In the case of `*c1ccc(-c2nc3cc(-c4ccc5nc(*)c(-c6ccc7ccccc7c6)nc5c4)ccc3nc2-c2ccc3ccccc3c2)cc1` (repeat unit) it was 333.00 °C; in that of `*c1ccc(-c2nc3cc(-c4ccc5nc(*)c(-c6ccccc6)nc5c4)ccc3nc2-c2ccccc2)cc1` (repeat unit), 391.50 °C; in that of `*c1ccc(-c2nc3cc(S(=O)(=O)c4ccc5nc(-c6ccccc6)c(*)nc5c4)ccc3nc2-c2ccccc2)cc1` (repeat unit), 345.00 °C.
Compound `*c1ccc(-c2nc3ccc(S(=O)(=O)c4ccc5nc(*)c(-c6ccccc6)nc5c4)cc3nc2-c2ccccc2)cc1` (repeat unit) gave a glass transition temperature of 345.00 °C.
`*c1ccc(C(=O)c2cccc(C(=O)c3ccc(S(*)(=O)=O)cc3)c2)cc1` (repeat unit) came in with a glass transition temperature of 198.00 °C.
`*c1ccc(OCCCCCCCCCCCOc2ccc(-c3ccc4nc(-c5cccc(-c6cc(-c7ccccc7)c7cc(*)ccc7n6)c5)cc(-c5ccccc5)c4c3)cc2)cc1` (repeat unit) showed a glass transition temperature of 133.50 °C.
`*c1ccc(Oc2ccc(-c3c(-c4ccccc4)c4c(c(-c5ccccc5)c3-c3ccccc3)C(=O)N(c3cccc(N5C(=O)c6c(c(-c7ccccc7)c(-c7ccccc7)c(*)c6-c6ccccc6)C5=O)c3)C4=O)cc2)cc1` (repeat unit) had a glass transition temperature of 357.00 °C.
Under `*c1ccc(Oc2ccc(-c3c(-c4ccccc4)nc4ccc(-c5ccc6nc(-c7ccccc7)c(*)c(-c7ccccc7)c6c5)cc4c3-c3ccccc3)cc2)cc1` (repeat unit) stands 307.50 °C; under `*c1ccc(Oc2ccc(-c3nc(-c4cccc(-c5nnc(-c6ccccc6)c(*)n5)n4)nnc3-c3ccccc3)cc2)cc1` (repeat unit), 219.00 °C.
As to `*c1ccc(Oc2ccc(-n3nccc3-c3cccc(-c4ccnn4*)c3)cc2)cc1` (repeat unit), the glass transition temperature came to 216.00 °C.
Compound `*c1ccc(Oc2cccc(-n3c(=O)c4cc5c(=O)n(*)c(=O)c5cc4c3=O)c2)cc1` (repeat unit) yielded a glass transition temperature of 397.00 °C.
With `*c1ccc(Oc2cccc(-n3c(=O)c4cc5c(=O)n(-c6cccc(Oc7ccc(-c8nc9cc%10sc(*)nc%10cc9s8)cc7)c6)c(=O)c5cc4c3=O)c2)cc1` (repeat unit), the glass transition temperature was determined as 400.00 °C.
In the case of `*c1ccc(Oc2cccc(N3C(=O)c4ccc(-c5cccc6c5C(=O)N(*)C6=O)cc4C3=O)c2)cc1` (repeat unit) it was 286.00 °C.
Consider `*c1ccc(Sc2ccc(-c3nc4cc(-c5ccc6nc(-c7ccccc7)c(*)nc6c5)ccc4nc3-c3ccccc3)cc2)cc1` (repeat unit), for which the glass transition temperature stood at 288.00 °C.
`*c1ccc(Sc2ccc(-c3nc4ccc(-c5ccc6nc(*)c(-c7ccccc7)nc6c5)cc4nc3-c3ccccc3)cc2)cc1` (repeat unit) gave a glass transition temperature of 288.00 °C.
`*c1ccc2c(c1)C(=O)N(c1ccc(Oc3ccc(C(=O)c4cccc(N5C(=O)c6ccc(C(*)(C(F)(F)F)C(F)(F)F)cc6C5=O)c4)cc3)c(C(F)(F)F)c1)C2=O` (repeat unit) displayed a glass transition temperature of 222.00 °C.
For `*c1ccc2c(c1)C(=O)N(c1ccc(Oc3ccc(C(=O)c4cccc(N5C(=O)c6ccc(C(*)(C(F)(F)F)C(F)(F)F)cc6C5=O)c4)cc3)cc1)C2=O` (repeat unit), the glass transition temperature came out at 242.00 °C.
In the case of `*c1ccc2c(c1)C(=O)N(c1cccc(Oc3ccc(Oc4cccc(N5C(=O)c6ccc(C(*)(C(F)(F)F)C(F)(F)F)cc6C5=O)c4)cc3)c1)C2=O` (repeat unit) it was 230.00 °C.
In the case of `*c1ccc2c(c1)C(CCCCCC)(CCCCCC)c1cc(-c3cc(CCCCCCCC)c(*)cc3CCCCCCCC)ccc1-2` (repeat unit) it was 74.50 °C.
For the compound `*c1ccc2c(c1)C(CCCCCC)(CCCCCC)c1cc(-c3cc(OCCCCCCCC)c(*)cc3OCCCCCCCC)ccc1-2` (repeat unit), the glass transition temperature came to 58.00 °C.
For the compound `*c1ccc2c(c1)C(CCCCCC)(CCCCCC)c1cc(-c3ccc4c(c3)c3cc(*)ccc3n4-c3ccc(C)cc3)ccc1-2` (repeat unit), the glass transition temperature came out at 155.00 °C.
Under `*c1ccc2c(c1)C(CCCCCC)(CCCCCC)c1cc(-c3ccc4c(c3)c3cc(*)ccc3n4-c3ccc(OC)cc3)ccc1-2` (repeat unit) stands 174.00 °C.
As for `*c1ccc2c(c1)C(CCCCCCCC)(CCCCCCCC)c1cc(-c3c(F)c(F)c(*)c(F)c3F)ccc1-2` (repeat unit), the glass transition temperature stood at 29.00 °C.
The compound `*c1ccc2c(c1)C(CCCCCCCC)(CCCCCCCC)c1cc(-c3cc(F)c(*)cc3F)ccc1-2` (repeat unit) gave a glass transition temperature of 34.00 °C.
On to `*c1ccc2c(c1)Sc1cc(-c3ccc(-c4ccc(*)s4)s3)ccc1N2CCCCCCCCCCCC` (repeat unit), for which the glass transition temperature worked out at 150.00 °C.
On to `*c1ccc2oc(-c3ccc(-c4nc5cc(C(*)(c6ccccc6)C(F)(F)F)ccc5o4)cc3)nc2c1` (repeat unit), for which the glass transition temperature was 369.00 °C.
The compound `*c1ccc2oc(-c3ccc(Oc4ccc(-c5nc6cc(C(*)(C(F)(F)F)C(F)(F)F)ccc6o5)cc4)cc3)nc2c1` (repeat unit) gave a glass transition temperature of 303.00 °C.
`*c1ccc2oc(-c3ccc4oc5ccc(-c6nc7cc(C(*)(C(F)(F)F)C(F)(F)F)ccc7o6)cc5c4c3)nc2c1` (repeat unit) yielded a glass transition temperature of 195.00 °C.
The compound `*c1ccc2oc(C3CCC(c4nc5cc(C(*)(C(F)(F)F)C(F)(F)F)ccc5o4)CC3)nc2c1` (repeat unit) showed a glass transition temperature of 271.00 °C.
With `*c1cccc(-c2nc3cc(-c4ccc5nc(*)c(-c6ccccc6)nc5c4)ccc3nc2-c2ccccc2)c1` (repeat unit), the glass transition temperature is 319.00 °C.
In turn, `*c1cccc(-c2nc3cc(-c4ccc5nc(-c6ccccc6)c(*)nc5c4)ccc3nc2-c2ccccc2)c1` (repeat unit) gave a glass transition temperature of 320.00 °C.
`*c1cccc(-c2nc3cc4nc(*)c(-c5ccccc5)nc4cc3nc2-c2ccccc2)c1` (repeat unit) displayed a glass transition temperature of 365.00 °C.
On to `*c1cccc(-n2c(=O)c3cc4c(=O)n(*)c(=O)c4cc3c2=O)n1` (repeat unit), for which the glass transition temperature came out at 183.50 °C.
The compound `*c1cccc(C(=O)c2ccc(Oc3ccc(N4C(=O)c5ccc(Oc6ccc7c(c6)C(=O)N(*)C7=O)cc5C4=O)cc3)cc2)c1` (repeat unit) had a glass transition temperature of 232.00 °C.
Under `*c1cccc(N2C(=O)C(=O)N(CCCCCCN3C(=O)C(=O)N(*)C3=O)C2=O)n1` (repeat unit) stands 169.50 °C; under `*c1cccc(N2C(=O)c3c(c(-c4ccccc4)c(-c4ccc(-c5c(-c6ccccc6)c6c(c(-c7ccccc7)c5-c5ccccc5)C(=O)N(*)C6=O)cc4)c(-c4ccccc4)c3-c3ccccc3)C2=O)c1` (repeat unit), 416.00 °C; under `*c1cccc(OCCCCCOc2cccc(N3C(=O)c4ccc(-c5ccc6c(c5)C(=O)N(*)C6=O)cc4C3=O)c2)c1` (repeat unit), 165.00 °C.
In the case of `*c1cccc(OCCCCOc2cccc(N3C(=O)c4ccc(-c5cccc6c5C(=O)N(*)C6=O)cc4C3=O)c2)c1` (repeat unit) it was 178.00 °C; in that of `*c1cccc(OP(=O)(Oc2cccc(-n3c(=O)c4cc5c(=O)n(*)c(=O)c5cc4c3=O)c2)c2ccccc2)c1` (repeat unit), 191.00 °C.
`*c1cccc(Oc2ccc(S(=O)(=O)c3ccc(Oc4cccc(-n5c(=O)c6cc7c(=O)n(*)c(=O)c7cc6c5=O)c4)cc3)cc2)c1` (repeat unit) had a glass transition temperature of 223.2 °C.
Under `*c1cccc(Oc2cccc(Oc3cccc(N4C(=O)C5C6C=CC(C7C(=O)N(*)C(=O)C67)C5C4=O)c3)c2)c1` (repeat unit) stands 177.00 °C; under `*c1cccc(Oc2cccc(Oc3cccc(N4C(=O)c5c(c(-c6ccccc6)c(-c6ccc(Oc7ccc(-c8c(-c9ccccc9)c9c(c(-c%10ccccc%10)c8-c8ccccc8)C(=O)N(*)C9=O)cc7)cc6)c(-c6ccccc6)c5-c5ccccc5)C4=O)c3)c2)c1` (repeat unit), 261.00 °C.
The compound `*c1cccc(P(C)(=O)c2cccc(N3C(=O)c4ccc(NC(=O)OCCOc5ccc(P(=O)(c6ccccc6)c6ccc(OCCOC(=O)Nc7ccc8c(c7)C(=O)N(*)C8=O)cc6)cc5)cc4C3=O)c2)c1` (repeat unit) yielded a glass transition temperature of 201.00 °C.
